From patent US6878702B2, “Anti-inflammatory agents” (Orion Corporation, priority 2000, dated 2005)
Blank lines part the entries; values can stand above or below the molecule they belong to.

What was measured:
[1] = system: carrageenan-induced rat paw edema; experiment: Carrageenan-induced paw edema in rats; format: in vivo; details: 3 h, male Wistar rats
Experimental: The acute inflammation was induced to the male Wistar rats by an injection of 0.1 ml of 1 or 2% lambda-carrageenan solution into the subplantar tissue of the right hind paw (=1 or 2 mg/paw). Three hours after the carrageenan injection the rats were killed. Both hind paws were cut off just above the heel and weighed. The test compounds (levosimendan and dextrosimendan) were administered orally 30 minutes before the induction of inflammation using dosing levels:
Control rats were included in each experiment. The difference between the weight of the right and the left hind paw was regarded as swelling. 9-10 animals were included in each group.

[2] = system: mitochondrial KATP channel; experiment: Mitochondrial ATP dependent potassium channel opening: membrane potential (ΔΨ) of isolated liver mitochondria, rhodamine 123; format: biochemical, rat; details: for ΔΨ of rat liver mitochondria in the choline chloride medium / ΔΨ of rat liver mitochondria in KCl medium: <2.58 μM concentration; for ΔΨ of rat liver mitochondria in KCl medium: respiring only on endogenous substrates, KCl medium with 400 μM ATP and 1 mg oligomycin/mg protein, FIG. 2; for effect on ΔΨ in presence of 5-hydroxydecanoate (5-HD), selective blocker of mitochondrial KATP channel: with 5-HD, data not shown
Excerpt: In respiring mitochondria, the decrease in ΔΨ due to the KATP channel opening is compensated by an increased respiration rate. When mitochondria respires only on endogenous substrates, and phosphorylation is blocked by oligomycin, the respiration rate is sufficient to generate a high ΔΨ. However, opening of KATP channels leads to a decrease in ΔΨ, which could not be compensated by increased respiration rate. In such a model, opening of KATP channel is unmasked, and can be recorded. This model was applied to test if opening could be induced by dextrosimendan and levosimendan.
Mitochondria were isolated from rat livers by differential centrifugation in medium containing 210 mM mannitol, 70 mM sucrose, 10 mM Hepes, 1 mM EGTA and 5 mg/ml bovine serum albumin, pH 7.4. The mitochondrial protein concentration was determined by modified Biuret method. Oxygen consumption of isolated liver mitochondria was recorded at 25° C. by means of the Clark-type electrode system in the KCl medium (100 mM KCl, 2 mM KH2PO4, 10 mM HEPES, 1 mM MgCl2, pH 7.4 with TRIZMA base) or choline chloride medium (100 mM choline chloride, 2 mM NaH2PO4, 10 mM HEPES, 1 mM MgCl2, pH 7.4 with TRIZMA base). The final mitochondrial protein concentration used in experiments was 1 mg protein/ml. For studies of respiring mitochondria, 5 mM succinate in the presence of 5 μM rotenone was used as substrate.
Membrane potential (ΔΨ) of liver mitochondria was measured with rhodamine 123 as a fluorescent probe using the excitation at 503 nm and emission at 527 nm at room temperature with the Hitachi F4000 fluorometer. The difference in fluorescense between mitochondria with addition of FCCP (0.4 μM) and without it was taken as 100%, and decrease in membrane potential by the tested compounds was expressed in % of FCCP effect.

melting point: 125 to 128 °C
SMILES: CC1SC(=O)NN=C1c1ccc(NN=C(C#N)C#N)cc1 (single isomer, unassigned; (+)) [compound B, (+)-[[4-(3,6-dihydro-6-methyl-2-oxo-2H-1,3,4-thiadiazin-5-yl)phenyl]hydrazono]propanedinitrile]

SMILES: C[C@@H]1CC(=O)NN=C1c1ccc(NN=C(C#N)C#N)cc1 [levosimendan, reference compound]
carrageenan-induced rat paw edema (swelling, weight difference of hind paws) ([1]; carrageenan 1 mg/paw, 0.1, 1 and 10 mg/kg orally 30 min before, FIG. 3a): inhibited the carrageenan-induced rat paw edema significantly
ΔΨ of rat liver mitochondria in the choline chloride medium [2]: did not significantly change
ΔΨ of rat liver mitochondria in KCl medium [2]: decreased
effect on ΔΨ in presence of 5-hydroxydecanoate (5-HD), selective blocker of mitochondrial KATP channel [2]: abolished

SMILES: CC1CC(=O)NN=C1c1ccc(NN=C(C#N)C#N)cc1 (single isomer, unassigned; (+)) [Dextrosimendan]
carrageenan-induced rat paw edema (swelling, weight difference of hind paws) ([1]; carrageenan 2 mg/paw, 10, 30 and 100 mg/kg orally 30 min before, FIG. 3b): inhibited the carrageenan-induced rat paw edema significantly
ΔΨ of rat liver mitochondria in the choline chloride medium [2]: did not significantly change
ΔΨ of rat liver mitochondria in KCl medium [2]: decreased
effect on ΔΨ in presence of 5-hydroxydecanoate (5-HD), selective blocker of mitochondrial KATP channel [2]: abolished
